The values that follow come from PMC12508057, “Discovery of ETI41 and ETI60: novel selective endosomal Toll-like receptor inhibitors for the treatment of autoimmune diseases” (Experimental & Molecular Medicine, 2025).

A short description of series [1]: MTT assay, cell survival in RAW 264.7. It counts as cell-based. To be noted: mouse, RAW 264.7 cell line, read-out: LC50. Here is the method: After 24 h, the supernatant was removed, and 500 μg/ml of 3-[4,5-dimethylthiazol-2-yl]-2,5 diphenyl tetrazolium bromide (MTT) solution (Invivogen) was added. After a 3 h incubation, the supernatant was removed, and DMSO was added to dissolve the formazan dye.
One-tailed paired Student’s t-tests were performed using Microsoft Excel (Microsoft). […] The therapeutic index was calculated as […]. Animal experimental results are expressed as mean ± standard deviation and analyzed using SPSS v.20 (IBM SPSS Statistics). Homogeneity of variance was assessed using Levene’s test.
Data are from at least three independent experiments (n = 3) and statistical differences between the induced case and other cases were analyzed and verified using a one-tailed Student’s t-test (*P < 0.05, **P < 0.01, ***P < 0.001).
In general terms: Formazan colour is commonly taken as a measure of viable cells.

A further series concerns the target T1, TLR7 (Mus musculus, UniProt P58681).
T1 construct: endogenous in cells; host or cells: RAW 264.7
T1 sequence (P58681 27-1050): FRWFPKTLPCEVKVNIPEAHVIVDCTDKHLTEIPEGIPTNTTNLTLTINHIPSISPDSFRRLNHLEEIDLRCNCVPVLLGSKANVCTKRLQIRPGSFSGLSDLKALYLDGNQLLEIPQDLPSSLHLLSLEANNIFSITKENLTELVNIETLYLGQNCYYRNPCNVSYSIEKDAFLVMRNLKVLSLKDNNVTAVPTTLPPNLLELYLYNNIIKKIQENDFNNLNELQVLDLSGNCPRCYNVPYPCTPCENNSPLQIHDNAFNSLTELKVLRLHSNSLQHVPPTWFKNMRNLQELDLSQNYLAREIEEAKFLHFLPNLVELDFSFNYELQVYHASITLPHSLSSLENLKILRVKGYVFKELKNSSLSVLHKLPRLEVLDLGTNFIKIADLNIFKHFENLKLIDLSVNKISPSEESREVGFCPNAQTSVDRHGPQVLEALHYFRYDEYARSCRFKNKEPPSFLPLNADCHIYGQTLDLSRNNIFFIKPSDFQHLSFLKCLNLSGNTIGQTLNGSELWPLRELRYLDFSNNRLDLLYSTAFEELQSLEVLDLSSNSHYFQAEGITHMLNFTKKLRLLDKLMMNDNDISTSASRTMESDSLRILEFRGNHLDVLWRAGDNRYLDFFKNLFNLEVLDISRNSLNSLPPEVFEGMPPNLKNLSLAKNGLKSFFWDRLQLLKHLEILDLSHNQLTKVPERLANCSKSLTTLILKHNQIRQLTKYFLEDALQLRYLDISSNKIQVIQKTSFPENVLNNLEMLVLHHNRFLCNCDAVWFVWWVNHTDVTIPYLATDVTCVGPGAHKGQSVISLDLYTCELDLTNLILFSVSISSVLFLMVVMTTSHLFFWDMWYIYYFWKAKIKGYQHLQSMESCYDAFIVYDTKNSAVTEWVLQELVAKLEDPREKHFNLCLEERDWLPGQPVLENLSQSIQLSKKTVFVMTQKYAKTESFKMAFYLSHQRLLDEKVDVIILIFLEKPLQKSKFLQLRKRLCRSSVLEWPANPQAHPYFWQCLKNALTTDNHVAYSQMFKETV
Description: TLR7 inhibition, TNF-α secretion (ELISA) in RAW 264.7. The format is cell-based. The settings on record: for TLR7 TI value: therapeutic index, RAW 264.7. Here is the method: RAW 264.7 and differentiated THP-1 cells were seeded into 96-well plates at 2 × 10^4 cells per well, while Daudi cells were seeded at 5 × 10^4 cells per well. After stabilization for 30 min, cells were stimulated with specific TLR agonists for 4 or 24 h. Supernatants were diluted and transferred to precoated ELISA plates to measure TNF-α secretion using kits from Invitrogen. Optical absorbance was measured using a BioTek Synergy HTX multimode microplate reader, and data were interpolated using BioTek Gen5 software.
One-tailed paired Student’s t-tests were performed using Microsoft Excel (Microsoft). Semi-logarithmic conversions and nonregression curve analyses for calculating 50% lethal concentration (LC50) and 50% inhibitory concentration (IC50) values were conducted using GraphPad Prism 7.0 (GraphPad). The therapeutic index was calculated as […]. Animal experimental results are expressed as mean ± standard deviation and analyzed using SPSS v.20 (IBM SPSS Statistics). Homogeneity of variance was assessed using Levene’s test.
The cells were activated with agonistic ligands: […], TLR3 (poly I:C, 2 μg/ml, 24 h), TLR4 (LPS, 10 or 100 ng/ml, 4 h), TLR5 (FLA-ST, 500 ng/ml, 4 h), TLR7 (ORN06/LyoVec, 2 μg/ml, 24 h; and IMQ, 1 μg/ml, 4 h), TLR8 (TL8-506, 2 μg/ml, 24 h) and TLR9 (ODN2395, 1 μM, 4 h) at various concentrations in RAW 264.7 cells, human Daudi cells and THP-1 cells. Data are from at least three independent experiments (n = 3) and statistical differences between the induced case and other cases were analyzed and verified using a one-tailed Student’s t-test (*P < 0.05, **P < 0.01, ***P < 0.001).
A general note: In an ELISA, binding on a coated surface is turned into a signal by an enzyme label.

Read-outs that look alike come from different tables or passages of the source.

In the case of `Cc1cc2c(N)c3c(nc2n1CCCN(C)C)CCCCCC3` [ETI41], the CC50 at 24 h in series [1] was 67.2 µM. In addition, on TLR7, the 50% inhibitory concentration (IC50) came to 0.63 µM and the “TLR7 TI value” was found to be 106.63.

Turning to `COc1ccc2c3c(N)c4c(nc3n(CCCN(C)C)c2c1)CCCC4` [ETI60], in series [1] (RAW 264.7 cells), the CC50 at 24 h was found to be 51.2 µM. The IC50 on TLR7 (RAW 264.7 cell line, read-out: TLR7 IC50 (mTNFα)) stood at 0.68 µM. Moreover, the “TLR7 TI value” on TLR7 is 75.65.

What is called IC50 is the concentration needed to halve the response being measured.
